Reference: patent US7576071B2, “Antithrombotic compound” (sanofi-aventis, priority 2004, dated 2009)

System: washed human platelets, TRAP-induced aggregation
Assay: In vitro test for inhibition of human platelet aggregation induced by TRAP
Format: cell-based
Settings: 5 μM TRAP; washed human platelets; mean of n experiments; entries marked b measured with a Chronolog aggregometer, others with micro plate reader; read-out: Inhibition of TRAP (5 μM)-induced human platelet aggregation (IC50), mean
Description: I.b. In vitro Test for Inhibition of Human Platelet Aggregation Induced by TRAP
Introduction: Addition of trombin receptor agonist peptide (TRAP) to washed human platelets (WPL) in vitro induces platelet aggregation. This aggregation can be determined by measuring the optical density of the WPL. The in vitro test described here is used to analyze the activity of a test compound to inhibit TRAP-induced aggregation of human platelets. A micro plate reader is used to measure the activity of several compounds simultaneously.
An alternative vehicle is 0.9% NaCl in MQ H2O. The compound solution (either in MQ H2O or 0.9% NaCl in MQ H2O) is further diluted in 0.9% NaCl in MQ H2O.
Free-flowing blood (at least 100 mL) is taken from a healthy volunteer and collected in 0.1 volume 3.8% sodium citrate. 2H2O in MQ H2O (w/v). The final concentration is 0.38% sodium citrate. The citrated blood is centrifuged at 1,600 N/kg (160 g) in Hettich Rotanta/AP centrifuge (750 rpm) at RT. After 15 min, centrifugation is discontinued with the brake turned off and the supernatant (=PRP) is collected. • 2. Washed platelets (WPL):
After adding freshly made 1 μL PGI2 solution per ml PRP, the suspension is centrifuged at 13,500 N/kg (1,350 g) for 10 min in a Hettich Rotanta/AP centrifuge (i.e., 2,800 rpm) at RT. After gentle resuspension of the pellet in the same volume of fresh Watson buffer containing 5 ng/mL PGI2, the suspension is centrifuged at 1,350 g (2,800 rpm) for 10 min at RT again. The final platelet pellet is resuspended in Watson buffer to give approx. 400,000±50,000 platelets/[…]. • 3. Watson buffer:
134 mM NaCl, 2.9 mM KCl, 12 mM NaHCO3, 0.34 mM Na2HPO4.2H2O, 1 mM MgCl2.6H2O, 5 mM Glucose and 5 mM HEPES in MQ H2O. The pH is adjusted to 7.4 with 1 M NaOH. • 4. Prostaglandin I2 (Sigma, P6188 powder):
The PGI2 stock solution of 1 mg/mL in 1 M KOH is stored in aliquots of 100 μL at −20° C. Immediately before use, a solution of 5 μg/mL in ice-cold 0.9% NaCl in MQ H2O is prepared. • 5. Human Fibrinogen (Kordia/ERL, art nr: FIB 2 powder):
0.5 g fibrinogen powder is dissolved in 50 mL MQ H2O under vacuum. This stock solution is stored in aliquots of 1 mL at −20° C. Before use, a solution of 0.5 mg/mL in saline is prepared.
Before use, a solution of 50 μM TRAP in 0.9% NaCl in MQ H2O is prepared. For each test, a fresh solution is made.
• 1. Sysmex cell counter model KX-21 • 2. Labsystems iEMS reader MF with a 405 nm filter, an orbital shaker set at 1,000 rpm and a constant temperature of 37° C. Absorptions are measured with the Labsystems iEMS program. • 3. Blood collection system 600 mL with needle, art nr P4203 (NPBI) • 4. 96 wells micro plates (Greiner Labortechnik) flat-bottom
Procedure: The WPL concentration is counted in a Sysmex blood cell counter and the suspension is diluted with Watson buffer to obtain a concentration of 400,000±50,000 plt/μL. Before use, WPL is allowed to stabilize at room temperature for at least 20 min but not longer than 3-4 hours.
TRAP-induced aggregation: 150 μL WPL is pipetted into a well of a micro plate. 15 μL test compound or vehicle and 15 μL fibrinogen solution is added and the micro plate is placed in the micro plate reader at 37° C. Then, the optical density (OD) is measured at 405 nm and after shaking for 2 min in the reader, the OD405 is measured again to verify the stability of the platelets (absence of spontaneous platelet aggregation). 20 μL of 50 μM TRAP is added and the OD405 is kinetically measured every min for 14 min at 405 nm. Between two measurements, the plate is shaking for 40 seconds at 1,000 rpm (FIG. 1). For determination of the IC50 of a test compound, each test compound is investigated in at least 2 experiments using WPL from different volunteers.
Evaluation of response: The mean OD of each concentration (including vehicle) is calculated at t=0 min and t=10 min. The percentage inhibition at each concentration is calculated using the formula: […]

IC50: 80 nM
Substance: Methyl O-2,3-di-O-methyl-4-O-<<12-N-<N-(3-keto-benzenesulfonyl)-4-O-{4-(4-piperidinyl)-butyl}-L-tyrosine>-12-aza-3,6,9-trioxa-dodecyl>>-6-O-sulfo-alpha-D-glucopyranosyl-(1->4)-O-2,3-di-O-methyl-beta-D-glucopyranuronosyl-(1->4)-O-2,3,6-tri-O-sulfo-alpha-D-glucopyranosyl-(1->4)-O-2,3-di-O-methyl-alpha-L-idopyranuronosyl-(1>4)-3-O-methyl-2,6-di-O-sulfo-alpha-D-glucopyranoside octakis sodium salt [XIV]
